Data on 2 compounds can be found in US8901036B2, “Combinations of phenylsulfonylurea herbicides and safeners” (Bayer Cropscience AG, priority 1994, dated 2014).

One data set has as its system SVFA. The experiment in a line: Effect and selectivity in corn: herbicidal effect. The class given is in vivo. The procedure: (§1) Various crop plants are grown in plastic pots with a diameter of 9 cm in a glasshouse to the stated stage and then treated with the particular herbicide or with a mixture of the herbicide and the safener by the post-emergence method. This entails the herbicide of the formula (A) and the compounds of the formula (B) being applied in the form of aqueous suspensions or emulsions with a water application rate which converts to 300 l/ha. 4 weeks after the treatment, the plants are assessed visually for every type of damage by the applied herbicides, taking particular account of the extent of persistent growth inhibition. The evaluation takes place in percentages (scale from 0 to 100%) compared with untreated controls.

The next data set concerns ECCG. The experiment in a line: Effect and selectivity in corn: herbicidal effect. The class given is in vivo, Echinochloa crus-galli. The following applies: start of tillering (4 to 5 leaves). The procedure: as §1
For another data set, the system named is Corn. Put plainly: Effect and selectivity in corn: phytotoxicity. In kind it is in vivo. The conditions noted are these: corn 4 leaves. The procedure: as §1
In a further data set the test system is SOHA. The experiment in a line: Effect and selectivity in corn: herbicidal effect. The conditions noted are these: 3 leaves. The class given is in vivo, Sorghum halepense. The method, then: as §1

Take `COC(=O)Nc1ccc(C(=O)N(C)C)c(S(=O)(=O)NC(=O)Nc2nc(OC)cc(OC)n2)c1` [A13, N-(4,6-Dimethoxypyrimidin-2-ylaminocarbonyl)-2-(N,N-dimethylaminocarbonyl)-5-(N-methoxycarbonylamino)benzenesulfonamide]: the entries for the “Phytotoxicity or herbicidal effect in % SVFA” value in the data set with SVFA (dose 25 g AS/ha) and in the data set with SVFA (dose 50 g AS/ha) were 90% and 95%, respectively. In addition, the “Phytotoxicity or herbicidal effect in % ECCG” value in the data set with ECCG (dose 25 g AS/ha) was determined as 99%; with ECCG (dose 50 g AS/ha) it was 100%. The “Phytotoxicity or herbicidal effect in % Corn” value in the data set with Corn (dose 25 g AS/ha) was determined as 10%; in the data set with Corn (dose 50 g AS/ha), 20%; in the data set on Corn (dose 100 g AS/ha) it was 30%. The “Phytotoxicity or herbicidal effect in % SOHA” value in the data set on SOHA (dose 25 g AS/ha) came out at 90%; in the data set on SOHA (dose 50 g AS/ha) it was 97%.
Consider `COC(=O)Nc1ccc(C(=O)N(C)C)c(S(=O)(=O)NC(=O)Nc2nc(OC)cc(OC)n2)c1.[Na]` [A7, N-(4,6-Dimethoxypyrimidin-2-ylaminocarbonyl)-2-(N,N-dimethylaminocarbonyl)-5-(N-methoxycarbonylamino)benzenesulfonamide sodium salt], for which the “Phytotoxicity or herbicidal effect in % SVFA” value in the data set with SVFA (dose 25 g AS/ha), in the data set with SVFA (dose 50 g AS/ha) and in the data set on SVFA (dose 100 g AS/ha) was 100% in each case. The results for the “Phytotoxicity or herbicidal effect in % ECCG” value in the data set on ECCG (dose 25 g AS/ha), in the data set with ECCG (dose 50 g AS/ha) and in the data set on ECCG (dose 100 g AS/ha) were 60%, 80% and 90%, respectively. Also, the “Phytotoxicity or herbicidal effect in % Corn” value in the data set on Corn (dose 25 g AS/ha) is 25%; in the data set on Corn (dose 50 g AS/ha) it was 40%; in the data set on Corn (dose 100 g AS/ha) it was 60%. Also, the “Phytotoxicity or herbicidal effect in % SOHA” value is 90% in the data set with SOHA (dose 25 g AS/ha), 90% with SOHA (dose 50 g AS/ha) and 95% with SOHA (dose 100 g AS/ha).
